The values below are quoted from earlier work in patent US20230404964A1, “COMBINATION FOR REDUCING OXIDATIVE STRESS IN THE BODY AND MAINTAINING LIVER FUNCTIONS” (priority 2020, published 2023).

Values joined by “and” are separate entries in the source; they are usually repeats but may differ in a detail not shown here. Identical values can stand only once.

This data set deals with HUVEC cells. The conditions noted are these: pretreatment with DHM 37.5-300 μmol, hydrogen peroxide.

For `O=C1c2c(O)cc(O)cc2O[C@H](c2cc(O)c(O)c(O)c2)[C@H]1O` [DHM, Dihydromyricetin], the “MDA concentration (in words)” value is recorded as “decrease in the MDA concentration” and the “production of reactive oxygen species (in words)” value is recorded as “significant decrease in the production of reactive oxygen species”. The decrease in apoptosis (depending on the dose) is 14.83% and 11.1% and 9.12%.
